Where two headings read alike, the source gives them in different places. One block for each compound: values may come before it.
Tests used:
[1] = test system: Diamide-Treated Mice Lenses; assay: Na+/K+ ratio and Ca2+ contents in diamide-treated mice lenses; type: cell-based, mouse (ddY); conditions: for Ca2+ content (in words) / Na+/K+ ratio (in words): 1 Mm (so in the source), vs control levels; for Ca2+ content / K+ content / Na+ content / Na/K ratio: diamide-treated lenses, 1 mM agent
Experimental: Male ddY mice, 6 weeks old, were killed by decapitation, and the […] were excised. The lenses were removed by a posterior approach and then transferred on a nylon net to a petri dish containing D-MEM medium (low glucose). The lenses were incubated at 37° C. for 19-20 hr in CO2 incubator under 5% CO2 -air and clear transparent lenses were collected to be used for following experiments. The lenses were incubated at 37° C. for 1.5 hr in 3 ml of isotonic HEPES buffer (10 mM HEPES, 136.2 mM NaCl, 5.3 mM KCl, 1.0 mM K2 HPO4, 1.7 mM CaC2 .cndot.2H2 O, 5.5 mM glucose pH 7.4) containing 1 mM diamide and the HEPES buffer without glucose. Those were transferred to an incubation test tube containing 3 ml of isotonic HEPES buffer (pH 7.4) with 1 mM DDC or GE. The diamide treated and non-treated controls were treated by the 5 hr-incubation without the above agents. The wet weight of these treated lenses were determined. Lenses were dried in vacuo at 100° C. for 8 hr, and then digested in 60% nitric acid (100 μl/lens) at 80° C. to degrade organic substances. One milliliter of purified water was added to the digests, and centrifuged at 3000×g for 10 min. Two tenth ml of the supernatant was mixed with 2 ml of purified water, and was used for measurement of Na^+ and K^+. One tenth milliliter of 100 μg/ml lanthanum chloride was added to the residual supernatant and used for measurement of Ca^2+, Na^+,K^+ and Ca^2+ contents in the lenses were determined by atomic absorption spectrometer (Hitachi 180-80, Tokyo, Japan).

[2] = target: Aldose Reductase from Rat Crystalline Lens (Rattus norvegicus, UniProt P07943); assay: biochemical; type: biochemical
Experimental: Aldose reductase was prepared from rat lenses in the following manner. Lenses (20 to 30) were homogenized in 20 volumes of 5 mM sodium phosphate buffer (pH 7.4), followed by centrifugation at 18,000×g for 5 min to remove insoluble materials. Solid ammonium sulfate was added to the supernatant fluid to 30% saturation. The suspension was centrifuged at 18,000×g for 10 min and the supernatant was recovered. Aldose reductase was precipitated from 30% saturated solution by the addition of solid ammonium sulfate to 75% saturation, and obtained by centrifugation. The precipitate was collected and suspended in 3.2M ammonium sulfate.
The enzyme solution was assayed by following the absorbance at 340 nm on a Shimadzu UV-2000 spectrophotometer equipped with a temperature-controlled cuvette chamber. The solution (0.1 ml) was added to a cuvette containing phosphate buffer (1.6 ml, pH 6.2, 0.1M final concentration) and NADPH (0.1 ml, 0.25 mM final concentration), and the cuvette was inserted into the spectrophotometer. The reaction was started by the addition of DL-glyceraldehyde (0.1 ml, 50 mM final concentration) to the cuvette, and the decrease of absorbance at 340 nm for 5 min at 25° C. was measured. […] Agents to be tested were dissolved with a minimal amount of dimethylsulfoxide and diluted to the desired concentration with purified water. The resulting solution (0.1 ml) was added to the cuvette. The reference blank (to correct for non-specific oxidation of NADPH and absorption of the agents) was prepared by using water instead of DL-glyceraldehyde solution.

[3] = test system: rabbit cornea; assay: In vitro transcorneal penetration of DDC from liposomes; type: in vitro ADME
Experimental: Male rabbit, 2.0 kg of body weight was sacrificed by a injection of lethal dose of pentobarbital into a […] and then two eyeballs were removed from […]. The cornea was set to the cell in which donor side was filled with liposomes containing DSF and in reservoir side with 10 mM HEPES buffer (pH 7.4) containing 136 mM NaCl, 5.3 mM KCl, 1.0 mM K2 HPO4, 1.7 mM CaCl2 and 5.5 mM glucose, shown in FIG. 2. The penetration was carried out at 37° C. for 0-6 hr. The sample (50 μl) was withdrawn from reservoir side at the indicated times. DDC in the sample was determined by the HPLC method (FIG. 2).

[4] = test system: Diamide-Treatment Mice Lenses; assay: GSH content in diamide-treated mice lenses; type: cell-based, mouse (ddY); conditions: for GSH content: 1 mM diamide
Experimental: Male ddY mice, 6 weeks old, were killed by decapitation, and the globes were excised. The lenses were removed by a posterior approach and then transferred on a nylon net to an petri containing D-MEM medium (low glucose). The lenses were incubated at 37 ° C. for […] and clear transparent lenses were collected to be used for following experiments. […] Those were transferred to an incubation test tube containing 3 ml of isotonic HEPES buffer (pH 7.4) containing 5.5 mM glucose with 1 mM DDC or GE (glutathione isopropyl ester). The diamide treated and non-treated controls were treated by the 5 hr--incubation without the above agents. The wet weight of these treated lenses were determined.
The treated lenses were homogenized with 0.5 ml of purified water by Teflon homogenizer. GSH in the homogenate was determined by the method of Beutler using DTNB and the HPLC method followed.
Fifty microliter of the lens homogenate were added into 100 μl of acetonitrile containing 100 μg of sodium pantothenate (internal standard) and centrifuged at 12,000 rpm for 10 min. The supernatant solution (10 μl) was injected into a HPLC apparatus, Shimadzu LC-10AD equipped with a column oven, CTO-6A and the chromatography were performed under the conditions: a column of Supersphere 100RP-18 (particle size: 4 μm, column size: 4.0×250 mm), mobile phase of 5% methanol containing 1.0% TFA, flow rate of 1 ml/min, and column temperature at 35° C.

[5] = pH 6.2, 25° C., DL-glyceraldehyde substrate, read-out: IC50

Compound: O[C@H](CS)[C@H](O)CS (relative stereo) [DTT]
Ca2+ content (in words) [1]: restored completely
Na+/K+ ratio (in words) [1]: restored completely

IC50 [2, 5]: 1000 µM
Compound: CC(=C(CCO)SSCC1CCCO1)N(C=O)Cc1cnc(C)nc1N (stereo in doubt) [Frusultiamine (Alinamine F), Frusultiamine]

Compound: CO[C@@]1(NC(=O)CSCC#N)C(=O)N2C(C(=O)O)=C(CSc3nnnn3C)CS[C@@H]21 [CMZ, cefmetazole]
Ca2+ content (in words) [1]: restored completely
Na+/K+ ratio (in words) [1]: restored completely
Ca2+ content [1]: 1.11 ± 0.36 mmol/kg of H2 O
K+ content [1]: 84.91 ± 10.06 mmol/kg of H2 O
Na+ content [1]: 40.59 ± 10.16 mmol/kg of H2 O
Na/K ratio [1]: 0.50 ± 0.19
inhibitory activity against rat lens aldose reductase (in words) [2]: lower inhibitory activities
IC50 [2, 5]: 450 µM

Compound: CCN(CC)C(=S)S [DDC, Diethyldithiocarbamate]
DDC content in the reservoir solution relative to that at pH 8.0 ([3]; pH 6.5, six hours after incubation): one third
effect of BSA on DDC penetration (in words) ([3]; pH 8.0, 1.75% BSA in donor solution): did not affect

Compound: CCN(CC)C(=S)[S-].[Na+] [DDC-Na, Sodium diethyldithiocarbamate]
GSH content ([4]; DTNB method, 1 mM agent): 9.8 μg/lens
GSH content ([4]; HPLC method, 1 mM agent): 3.9 μg/lens
Ca2+ content [1]: 1.09 ± 0.33 mmol/kg of H2 O
K+ content [1]: 86.25 ± 4.02 mmol/kg of H2 O
Na+ content [1]: 36.56 ± 4.38 mmol/kg of H2 O
Na/K ratio [1]: 0.43 ± 0.07
IC50 [2]: 2600 µM

Compound: CCN(CC)C(=S)SSC(=S)N(CC)CC [DSF, tetraethylthiuram disulfide]
inhibitory activity against rat lens aldose reductase (in words) [2]: lower inhibitory activities
IC50 [2, 5]: 120 µM

Compound: CC(C)OC(=O)CNC(=O)[C@H](CS)NC(=O)CC[C@H](N)C(=O)O [GE, Glutathione isopropyl ester]
total GSH in diamide-treated lenses (in words) ([4]; DTNB method, 1 mM agent): restored by the control GSH level
GSH content ([4]; DTNB method, 1 mM agent): 10.3 μg/lens
restoring of GSH (in words) ([4]; HPLC method): restoring of GSH
GSH content ([4]; HPLC method, 1 mM agent): 4.0 μg/lens
Ca2+ content (in words) [1]: restored completely
Na+/K+ ratio (in words) [1]: restored completely
Ca2+ content [1]: 1.39 ± 0.30 mmol/kg of H2 O
K+ content [1]: 79.67 ± 8.63 mmol/kg of H2 O
Na+ content [1]: 51.60 ± 9.57 mmol/kg of H2 O
Na/K ratio [1]: 0.67 ± 0.20
inhibitory activity against rat lens aldose reductase (in words) [2]: lower inhibitory activities
IC50 [2, 5]: 760 µM

IC50 [2, 5]: 1550 µM
Compound: N[C@@H](CCC(=O)N[C@@H](CS)C(=O)NCC(=O)O)C(=O)O [Glutathione (GSH), Glutathione]

inhibitory activity against rat lens aldose reductase (in words) [2]: lower inhibitory activities
IC50 [2, 5]: 17.5 µM
Compound: O=C(O)c1cc(O)c2c3nc4ccccc4oc-3cc(=O)c2n1 [Pirenoxine (Catalin), Pirenoxine]

Compound: C[C@@H]1O[C@@H](Oc2c(-c3ccc(O)c(O)c3)oc3cc(O)cc(O)c3c2=O)[C@H](O)[C@H](O)[C@H]1O [Quercitrin]
IC50 [2]: 0.26 µM
inhibitory activity against rat lens aldose reductase (in words) [2]: lower inhibitory activities

IC50 [2, 5]: 1350 µM
Compound: CC(S)C(=O)NCC(=O)O (stereo not shown) [Tiopronin]
